Values quoted from earlier work in patent US10590413B2, “Chiral control” (WAVE LIFE SCIENCES LTD., priority 2012, dated 2020).
Like-named read-outs stand apart in the source and are kept apart here.

Assays:
[1] = tested on: Murine IL-6 production and B cell activation; settings: cited from earlier work; for IL-6 (pg/ml) CH12.LX: CH12.LX cells; for IL-6 (pg/ml) SPLENIC B CELL: splenic B cells
NK activity = settings: cited from earlier work
[2] = oligo 1619 alone or with a second "bad" CpG oligonucleotide added; cited from earlier work
[3] = tested on: ODN-induced cytokine expression; settings: ELISA on supernatants from DBA/2 spleen cells, 2 × 10^7 cells/ml, 24 hr, ODN at 30 μg/ml; cited from earlier work
human PBMC = settings: cited from earlier work
[4] = unstimulated control ≤10 pg/ml, US 6,239,116 Table 2
[5] = ODN 12 μg/ml, 24 hr, 10% autologous serum, level above wells with no ODN, ELISA

Q: Which results are given for “1619 (DNA TCCATGTCGTTCCTGATGCT; chemistry not given here) [Oligonucleotide 1619]”?
A: IL-6 (pg/ml) CH12.LX [1]: 1555 ± 304 pg/mL; IL-6 (pg/ml) CH12.LX [1, 4]: 1555 ± 304 pg/mL; SI (stimulation index, [3H] uridine uptake, fold increase from unstimulated control) ([1]; cells stimulated with 20 μM CpG O-ODN, mean ± SD of triplicates): 12.5 ± 1.0; SI (stimulation index, [3H] uridine uptake) ([1]; fold increase from unstimulated control, 20 μM CpG O-ODN, mean ± SD of triplicates): 12.5 ± 1.0; IgM ([1]; measured by ELISA, unstimulated culture 547 ± 82 ng/ml): 8243 ± 698 ng/mL; IL-6 (pg/ml) SPLENIC B CELL [1]: 2908 ± 129 pg/mL; IL-6 (pg/ml) SPLENIC B CELL [1, 4]: 2908 ± 129 pg/mL; LU/10^6, Mouse Cells (NK activity; Expt. 3, None = 0.00): 3.35 LU/10^6; NK activity LU/10^5 Mouse Cells (NK activity; Table 3 of U.S. Pat. No. 6,214,806): 3.35 LU/10^5; NK activity LU/10^6 Mouse Cells (NK activity; Table 9 of U.S. Pat. No. 6,207,646): 3.35 LU/10^6; IL-12 in pg/ml [2]: 6 pg/mL; ODN-induced cytokine expression IFN-γ [3]: 4628 pg/mL; ODN-induced cytokine expression IL-6 [3]: 1405 pg/mL; ODN-induced cytokine expression IL-12 [3]: 3130 pg/mL; TNF-α (human PBMC; ODN 12 μg/ml, 4 hr, 10% autologous serum, level above wells with no ODN, ELISA): 450 pg/mL; GM-CSF (human PBMC; [5]): 80 pg/mL; IFN-γ (human PBMC; [5]): 200 pg/mL; IL-6 (human PBMC; [5]): 275 pg/mL; IL-12 (human PBMC; [5]): 450 pg/mL; GM-CSF (human PBMC): 80; IFN-γ (human PBMC): 200; IL-6 (human PBMC): 275; IL-12 (human PBMC): >500; TNF-α (human PBMC): 450
